Test results published in patent publication US6613772B1, “Substituted 2-aryl-4-amino-chinazolines, method for the production and use thereof as medicaments” (Aventis Pharma Deutschland GmbH, priority 1997, dated 2003).

Assays:
[1] = molecular target: T1, soluble guanylate cyclase (sGC) (Bos taurus, UniProt P16068+P19687); test: Activation of the soluble guanylate cyclase (cGMP enzyme immunoassay); assay type: biochemical; settings: test substance 50 μM; sGC isolated from bovine lung; [cGMP] test substance/[cGMP] control (basal activity, solvent); 37° C., 15 to 20 minutes
T1 construct: The sGC employed had been isolated from bovine lung; from tissue; host or cells: bovine lung
T1 sequence (P19687 1-691): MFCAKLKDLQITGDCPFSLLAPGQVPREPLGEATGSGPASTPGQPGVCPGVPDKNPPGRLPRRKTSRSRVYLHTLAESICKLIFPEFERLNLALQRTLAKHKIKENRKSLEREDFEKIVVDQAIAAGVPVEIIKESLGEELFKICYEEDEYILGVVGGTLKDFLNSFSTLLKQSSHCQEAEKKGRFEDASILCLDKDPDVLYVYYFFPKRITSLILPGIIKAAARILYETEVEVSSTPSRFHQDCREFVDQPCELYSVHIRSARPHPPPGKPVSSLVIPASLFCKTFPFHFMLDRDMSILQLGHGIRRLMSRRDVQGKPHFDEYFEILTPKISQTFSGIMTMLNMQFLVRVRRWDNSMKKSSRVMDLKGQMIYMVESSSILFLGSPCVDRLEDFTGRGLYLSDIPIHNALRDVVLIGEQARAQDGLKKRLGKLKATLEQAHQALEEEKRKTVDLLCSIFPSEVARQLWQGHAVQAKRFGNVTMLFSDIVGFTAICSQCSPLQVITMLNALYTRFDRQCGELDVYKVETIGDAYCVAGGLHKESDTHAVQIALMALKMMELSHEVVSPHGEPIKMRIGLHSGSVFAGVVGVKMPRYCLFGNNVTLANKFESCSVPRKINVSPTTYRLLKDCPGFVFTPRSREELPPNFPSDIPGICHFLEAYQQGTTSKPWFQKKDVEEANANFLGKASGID
T1 sequence (P16068 1-619): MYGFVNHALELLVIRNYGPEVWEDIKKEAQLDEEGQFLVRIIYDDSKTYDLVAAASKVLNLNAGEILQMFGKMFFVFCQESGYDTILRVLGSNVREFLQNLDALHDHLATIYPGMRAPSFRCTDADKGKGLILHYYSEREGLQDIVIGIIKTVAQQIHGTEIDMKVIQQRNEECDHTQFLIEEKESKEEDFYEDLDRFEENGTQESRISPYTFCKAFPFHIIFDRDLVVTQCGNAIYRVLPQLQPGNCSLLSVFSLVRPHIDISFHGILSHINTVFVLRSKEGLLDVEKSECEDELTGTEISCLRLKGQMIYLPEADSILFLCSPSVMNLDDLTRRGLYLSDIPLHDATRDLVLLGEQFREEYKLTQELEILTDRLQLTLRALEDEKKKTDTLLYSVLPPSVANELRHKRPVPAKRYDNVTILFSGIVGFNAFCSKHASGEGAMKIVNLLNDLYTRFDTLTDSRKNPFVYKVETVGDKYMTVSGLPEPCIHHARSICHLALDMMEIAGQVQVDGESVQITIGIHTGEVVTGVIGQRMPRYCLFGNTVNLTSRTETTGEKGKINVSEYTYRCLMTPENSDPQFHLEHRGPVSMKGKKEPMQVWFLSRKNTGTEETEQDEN
Procedure: Activation of the Soluble Guanylate Cyclase
The activation of the soluble guanylate cyclase (sGC), which catalyzes the conversion of guanosine triphosphate (GTP) into cyclic guanosine monophosphate (cGMP) and pyrophosphate, by the compounds according to the invention was quantified with the aid of an enzyme immunoassay (EIA) from Amersham. For this, the test substances were first incubated with sGC in microtiter plates and then the amount of resulting cGMP was determined. The sGC employed had been isolated from bovine lung (see Methods in Enzymology, Volume 195, p. 377). The test solutions (100 μl per well) contained 50 mM triethanolamine (TEA) buffer (pH 7.5), 3 mM MgCl2, 3 mM reduced glutathione (GSH), 0.1 mM GTP, 1 mM 3-isobutyl-1-methylxanthine (IBMX), suitably diluted enzyme solution and the test substance or, in the case of the control experiments, solvent. The test substances were dissolved in dimethyl sulfoxide (DMSO) and the solution was diluted with DMSO/water such that the final concentration of test substance in the test solution was 50 μM. The DMSO concentration in the test solution was 5% (v/v). The reaction was started by addition of the sGC. The reaction mix was incubated at 37° C. for 15 to 20 minutes and then stopped by ice-cooling and addition of the stop reagent (50 mM EDTA, pH 8.0). An aliquot of 50 μl was taken and employed for the determination of the cGMP content using the acetylation protocol of the Amersham cGMP EIA kit. The absorption of the samples was measured at 450 nm (reference wavelength 620 nm) in a microtiter plate reader. The cGMP concentration was determined by means of a calibration curve which was obtained under the same experimental conditions. The activation of the sGC by a test substance is indicated as n-fold stimulation of the basal enzyme activity which was found in the control experiments (with solvent instead of test substance calculated according to the formula
n-fold stimulation=[cGMP]test substance/[cGMP]control).

SMILES	n-fold Stimulation [1] [n-fold]	melting point [°C]
COc1cc2c(N3CCN(Cc4ccccc4)CC3)nc(-c3ccc(Cl)cc3)nc2c(OC)c1OC [Example 09, 2-(4-Chlorophenyl)-4-(4-benzylpiperazino)-6,7,8-trimethoxyquinazoline]	4	
COc1cc2c(NCCN(C(C)C)C(C)C)nc(-c3ccc(Cl)cc3)nc2c(OC)c1OC.Cl [Example 11, 2-(4-Chlorophenyl)-4-(2-diisopropylaminoethylamino)-6,7,8-trimethoxyquinazoline Hydrochloride]	6	189
COc1cc2c(N3CCN(CC(=O)N4CCOCC4)CC3)nc(-c3ccc(Cl)cc3)nc2c(OC)c1OC [Example 12, 2-(4-Chlorophenyl)-4-(4-(morpholinocarbonylmethyl)piperazino)-6,7,8-trimethoxyquinazoline]	6	177
COc1cc2c(N3CCN(CCO)CC3)nc(-c3ccc(Cl)cc3)nc2c(OC)c1OC [Example 13, 2-(4-Chlorophenyl)-4-(4-(2-hydroxyethyl)piperazino)-6,7,8-trimethoxyquinazoline]	7	175
COc1cc2nc(-c3ccc(Cl)cc3)nc(N3CCN(C)CC3)c2cc1OC.Cl [Example 17, 2-(4-Chlorophenyl)-4-(4-methylpiperazino)-6,7-dimethoxyquinazoline Hydrochloride]	4	249
COc1cc2nc(-c3ccc(Cl)cc3)nc(N3CCN(CC(=O)NC(C)C)CC3)c2cc1OC [Example 24, 2-(4-Chlorophenyl)-4-(4-(isopropylaminocarbonylmethyl)piperazino)-6,7-dimethoxyquinazoline]	3	187
COc1cc2nc(-c3ccc(Cl)cc3)nc(NCc3cccnc3)c2cc1OC [Example 28, 2-(4-Chlorophenyl)-4-((3-pyridylmethyl)amino)-6,7-dimethoxyquinazoline]	5	232
COc1cc2nc(-c3ccc(Cl)cc3)nc(NCCCO)c2cc1OC [Example 32, 2-(4-Chlorophenyl)-4-(3-hydroxypropylamino)-6,7-dimethoxyquinazoline]	5	187

More lines, now with the values ahead:

n-fold Stimulation [1] [n-fold]	melting point [°C]	SMILES
3	190	COc1cc2c(NCCCN3CCOCC3)nc(-c3ccc(Cl)cc3)nc2c(OC)c1OC.Cl [Example 14, 2-(4-Chlorophenyl)-4-(3-morpholinopropylamino)-6,7,8-trimethoxyquinazoline Hydrochloride]
5	236	COc1cc2nc(-c3ccc(Cl)cc3)nc(NCCO)c2cc1OC [Example 20, 2-(4-Chlorophenyl)-4-(2-hydroxyethylamino)-6,7-dimethoxyquinazoline]
4	163	COc1cc2nc(-c3ccc(Cl)cc3)nc(N3CCN(CCO)CC3)c2cc1OC [Example 23, 2-(4-Chlorophenyl)-4-(4-(2-hydroxyethyl)piperazino)-6,7-dimethoxyquinazoline]
3	291	COc1cc2nc(-c3ccc(Cl)cc3)nc(NCC(N)=O)c2cc1OC [Example 25, 2-(4-Chlorophenyl)-4-((aminocarbonylmethyl)amino)-6,7-dimethoxyquinazoline]
3	188	COc1cc2nc(-c3ccc(Cl)cc3)nc(NCCOCCO)c2cc1OC [Example 33, 2-(4-Chlorophenyl)-4-(2-(2-hydroxyethoxy)ethylamino)-6,7-dimethoxyquinazoline]
7		COc1cc2c(N3CCC(O)CC3)nc(-c3ccc(Cl)cc3)nc2c(OC)c1OC [Example 95, 2-(4-Chlorophenyl)-4-(4-hydroxypiperidino)-6,7,8-tdmethoxyquinazoline]
